Active and inactive are the calls of the source.
Tests used:
Type in all cases: functional
[1] = target: Induced myeloid leukemia cell differentiation protein Mcl-1 (Homo sapiens, UniProt Q07820)
[2] = target: Matrix metalloproteinase-14 (Homo sapiens, UniProt P50281); test: Dose Response confirmation of uHTS hits for a small molecule inhibitors of MT1-MMP activation in a fluorescence assay set 2.
[3] = target: Fructose-bisphosphate aldolase (Mycobacterium tuberculosis, UniProt P9WQA3); test: Fluorescence-based biochemical high throughput dose response assay for inhibitors of the fructose-bisphosphate aldolase (FBA) of M. tuberculosis.
[4] = target: T1, Sentrin-specific protease 1 (Homo sapiens, UniProt Q9P0U3); test: potency of human SENP1 inhibitors, dose response, biochemical, kinetic FRET (AID 651697); conditions: read-out: IC50_Mean
[5] = target: T1, Sentrin-specific protease 1; test: Dose response confirmation of small molecule inhibitors of the catalytic domain of the SUMO protease, SENP1 in a FRET assay.; conditions: read-out: IC50_Mean
[6] = target: T2, ATP-dependent translocase ABCB1 (Homo sapiens, UniProt P08183); test: ABCG2 efflux pump inhibitor potency, dose response, Ig-MXP3 cells, JC-1, flow cytometry, set 2 (AID 504566); conditions: read-out: EC50_MICROM_;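 note: flow cytometry median green fluorescence of retained JC-1 dye; potency of efflux pump inhibition measured as rising substrate retention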
[7] = target: T2, ATP-dependent translocase ABCB1; test: ABCB1 efflux inhibitor potency, dose response, Jurkat-DNR cells, JC-1, flow cytometry, set 2 (AID 504569); conditions: read-out: EC50_MICROM_;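 note: potency of pump inhibitors that raise cellular JC-1 green fluorescence up to the nicardipine level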
[8] = HEK293 cell viability, dose response, counter-screen for EBV LMP1 inhibitor project, dry powder, set 2 (AID 624374)
[9] = lymphoblastoid cell cytotoxicity, dose response, cytotoxicity control, plate reader, dry powder, set 2 (AID 624367)
[10] = LMP1-driven NF-kB reporter inhibition, dose response, cell-based, luciferase reporter, luminescence, dry powder, set 2 (AID 624376)
Albumin = Albumin (Bos taurus, UniProt P02769); test: Counterscreen for inhibitors of T-cell receptor (TCR)-CD3 interaction: Fluorescence-based biochemical high throughput dose response assay to identify inhibitors of T-cell receptor (TCR)-CD3 interaction using a TAMRA-labeled BSA probe.
Sequence of Albumin (P02769 whole entry): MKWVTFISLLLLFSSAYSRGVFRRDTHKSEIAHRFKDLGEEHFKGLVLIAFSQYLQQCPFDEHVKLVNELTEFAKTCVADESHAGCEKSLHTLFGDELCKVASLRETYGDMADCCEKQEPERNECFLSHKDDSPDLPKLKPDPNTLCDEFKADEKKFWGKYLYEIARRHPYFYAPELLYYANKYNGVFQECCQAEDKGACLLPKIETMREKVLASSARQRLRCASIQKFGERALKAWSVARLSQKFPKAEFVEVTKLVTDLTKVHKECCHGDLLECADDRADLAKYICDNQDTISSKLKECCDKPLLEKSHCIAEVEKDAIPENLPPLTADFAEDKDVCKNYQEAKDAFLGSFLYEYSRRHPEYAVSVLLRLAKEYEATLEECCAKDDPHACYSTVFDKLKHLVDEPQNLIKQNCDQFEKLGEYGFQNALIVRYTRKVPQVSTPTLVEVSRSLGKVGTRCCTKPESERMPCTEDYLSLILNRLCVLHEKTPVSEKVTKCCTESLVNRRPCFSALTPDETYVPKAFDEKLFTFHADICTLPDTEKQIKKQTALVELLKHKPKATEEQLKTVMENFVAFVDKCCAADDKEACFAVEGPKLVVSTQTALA

T2 sequence (P08183 whole entry): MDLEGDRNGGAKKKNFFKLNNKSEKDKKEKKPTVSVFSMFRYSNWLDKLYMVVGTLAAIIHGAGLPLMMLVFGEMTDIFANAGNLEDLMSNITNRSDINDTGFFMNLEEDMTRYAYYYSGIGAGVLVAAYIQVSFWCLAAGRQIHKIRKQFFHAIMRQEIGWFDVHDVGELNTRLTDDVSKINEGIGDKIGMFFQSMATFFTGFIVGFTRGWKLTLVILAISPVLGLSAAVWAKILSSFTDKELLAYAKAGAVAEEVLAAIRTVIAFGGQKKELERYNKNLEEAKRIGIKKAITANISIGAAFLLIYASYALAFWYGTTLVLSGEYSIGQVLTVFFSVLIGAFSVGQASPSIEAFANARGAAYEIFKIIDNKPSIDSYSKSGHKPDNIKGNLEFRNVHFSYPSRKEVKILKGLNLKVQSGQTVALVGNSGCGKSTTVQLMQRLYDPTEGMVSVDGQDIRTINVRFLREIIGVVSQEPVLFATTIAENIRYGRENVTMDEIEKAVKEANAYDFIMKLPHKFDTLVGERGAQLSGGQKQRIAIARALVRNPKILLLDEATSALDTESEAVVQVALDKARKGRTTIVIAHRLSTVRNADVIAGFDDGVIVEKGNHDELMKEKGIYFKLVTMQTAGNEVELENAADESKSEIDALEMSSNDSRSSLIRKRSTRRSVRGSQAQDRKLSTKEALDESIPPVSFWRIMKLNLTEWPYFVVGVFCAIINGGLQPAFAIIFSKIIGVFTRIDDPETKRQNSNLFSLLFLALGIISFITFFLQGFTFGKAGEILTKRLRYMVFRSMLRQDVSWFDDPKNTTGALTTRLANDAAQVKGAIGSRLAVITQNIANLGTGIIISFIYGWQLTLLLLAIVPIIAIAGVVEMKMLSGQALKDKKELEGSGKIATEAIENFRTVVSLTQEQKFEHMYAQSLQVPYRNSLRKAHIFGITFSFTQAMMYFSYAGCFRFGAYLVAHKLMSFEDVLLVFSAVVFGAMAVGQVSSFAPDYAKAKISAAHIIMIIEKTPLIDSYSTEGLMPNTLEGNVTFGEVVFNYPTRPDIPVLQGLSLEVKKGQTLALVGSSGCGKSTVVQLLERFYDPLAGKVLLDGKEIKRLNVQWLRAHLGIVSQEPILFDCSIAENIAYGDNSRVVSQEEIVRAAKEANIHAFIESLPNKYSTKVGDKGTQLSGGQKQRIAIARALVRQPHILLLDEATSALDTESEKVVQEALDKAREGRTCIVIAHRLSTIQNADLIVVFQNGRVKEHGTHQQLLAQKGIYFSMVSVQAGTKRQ
T1 sequence (Q9P0U3 whole entry, the tested form may be a part): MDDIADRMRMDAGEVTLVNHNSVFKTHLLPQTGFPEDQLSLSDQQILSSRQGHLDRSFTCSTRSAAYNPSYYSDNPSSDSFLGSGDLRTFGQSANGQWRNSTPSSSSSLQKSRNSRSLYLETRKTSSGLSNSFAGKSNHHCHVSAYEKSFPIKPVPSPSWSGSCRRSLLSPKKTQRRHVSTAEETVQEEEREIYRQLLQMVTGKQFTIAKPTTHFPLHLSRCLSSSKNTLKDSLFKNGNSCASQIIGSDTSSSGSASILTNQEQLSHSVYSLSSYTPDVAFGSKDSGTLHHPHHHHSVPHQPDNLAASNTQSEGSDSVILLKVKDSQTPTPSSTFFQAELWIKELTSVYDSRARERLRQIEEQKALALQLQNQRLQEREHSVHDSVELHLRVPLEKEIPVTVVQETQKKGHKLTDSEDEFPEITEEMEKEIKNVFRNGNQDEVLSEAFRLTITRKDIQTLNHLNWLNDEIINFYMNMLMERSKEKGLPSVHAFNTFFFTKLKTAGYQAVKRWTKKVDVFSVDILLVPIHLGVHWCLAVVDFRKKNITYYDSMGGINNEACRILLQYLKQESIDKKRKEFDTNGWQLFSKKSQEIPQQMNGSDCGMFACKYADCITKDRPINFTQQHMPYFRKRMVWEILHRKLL
Sequence of Fructose-bisphosphate aldolase (P9WQA3 whole entry): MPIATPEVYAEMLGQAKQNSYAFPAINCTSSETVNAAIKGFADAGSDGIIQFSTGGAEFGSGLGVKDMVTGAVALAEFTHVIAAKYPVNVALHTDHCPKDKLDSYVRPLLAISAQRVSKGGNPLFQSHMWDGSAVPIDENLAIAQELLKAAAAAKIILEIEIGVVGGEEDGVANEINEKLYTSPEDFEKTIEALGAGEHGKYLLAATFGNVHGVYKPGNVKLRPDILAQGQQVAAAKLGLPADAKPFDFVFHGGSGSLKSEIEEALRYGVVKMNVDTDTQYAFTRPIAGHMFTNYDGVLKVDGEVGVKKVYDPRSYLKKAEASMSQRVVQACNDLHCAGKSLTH
Sequence of Induced myeloid leukemia cell differentiation protein Mcl-1 (Q07820 whole entry): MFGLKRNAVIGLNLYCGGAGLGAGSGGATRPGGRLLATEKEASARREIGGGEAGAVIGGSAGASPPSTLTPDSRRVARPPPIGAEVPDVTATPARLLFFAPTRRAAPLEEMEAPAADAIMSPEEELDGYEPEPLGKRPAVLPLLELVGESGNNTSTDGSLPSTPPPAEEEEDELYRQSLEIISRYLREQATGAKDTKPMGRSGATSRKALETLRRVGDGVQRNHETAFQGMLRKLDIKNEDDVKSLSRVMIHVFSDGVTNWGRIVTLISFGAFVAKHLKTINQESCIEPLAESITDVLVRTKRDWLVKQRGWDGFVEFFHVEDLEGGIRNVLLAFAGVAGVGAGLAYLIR

**Q.** For `Cc1ccc(C(=O)NNc2c3ccccc3nc3ccccc23)cc1`, which IC50 [1] is on record?
**A.** Its IC50 is 5.38 µM (active).

**Q.** What about the IC50 [2] of the same compound?
**A.** The IC50 was > 80 µM (inactive).

**Q.** With `CNc1ccc2ncc(-c3ccc(OC)c(OC)c3)n2n1` as the compound, how does the IC50 [3] read?
**A.** The IC50 was 1.69 µM (active).

**Q.** For `Oc1nc2cc3ccccc3cc2nc1-c1nnnn1C1CCCC1`, which IC50 [4] is on record?
**A.** Its IC50 is 2.21 µM (active).

**Q.** What about the IC50 [5] of the same compound?
**A.** Its IC50 is 1.05 µM (active).

**Q.** With `COc1ccc(-c2cc3nc(-c4ccccc4)cc(N4CCN(C(=O)c5ccccc5)CC4)n3n2)cc1` as the compound, how does the EC50 [6] read?
**A.** Its EC50 is 0.72 µM (active).

**Q.** What about the EC50 [7] of the same compound?
**A.** The EC50 was 0.69 µM (active).

**Q.** Which results are given for `O=C(C[C@H]1C[C@H]2c3cc(NS(=O)(=O)c4ccc(F)cc4)ccc3O[C@H]2[C@H](CO)O1)NCc1ccc(Oc2ccccc2)cc1`?
**A.** AbsAC35 [8]: 70.4 µM; AbsAC35 [9]: 45.43 µM

**Q.** For `CC(C)(C)[S@@+]([O-])N1Cc2cc(C(=O)NCc3ccccn3)nc(-c3cccc(-c4ccccc4F)c3)c2[C@H]1CCO`, which AbsAC35 [10] is on record?
**A.** Its AbsAC35 is 49.61 µM.

**Q.** Which IC50 (Albumin) does the source give for `Cn1c(SCC(=O)NNC(=O)c2ccccc2O)nnc1-c1ccccc1` here?
**A.** The IC50 was > 94.2 µM (inactive).
